For one test, the target named is T1, FAAH (Mus musculus, UniProt O08914).
T1 construct: mouse brain membrane fraction or cell lysates for mouse assays; from tissue
T1 sequence (O08914 1-579): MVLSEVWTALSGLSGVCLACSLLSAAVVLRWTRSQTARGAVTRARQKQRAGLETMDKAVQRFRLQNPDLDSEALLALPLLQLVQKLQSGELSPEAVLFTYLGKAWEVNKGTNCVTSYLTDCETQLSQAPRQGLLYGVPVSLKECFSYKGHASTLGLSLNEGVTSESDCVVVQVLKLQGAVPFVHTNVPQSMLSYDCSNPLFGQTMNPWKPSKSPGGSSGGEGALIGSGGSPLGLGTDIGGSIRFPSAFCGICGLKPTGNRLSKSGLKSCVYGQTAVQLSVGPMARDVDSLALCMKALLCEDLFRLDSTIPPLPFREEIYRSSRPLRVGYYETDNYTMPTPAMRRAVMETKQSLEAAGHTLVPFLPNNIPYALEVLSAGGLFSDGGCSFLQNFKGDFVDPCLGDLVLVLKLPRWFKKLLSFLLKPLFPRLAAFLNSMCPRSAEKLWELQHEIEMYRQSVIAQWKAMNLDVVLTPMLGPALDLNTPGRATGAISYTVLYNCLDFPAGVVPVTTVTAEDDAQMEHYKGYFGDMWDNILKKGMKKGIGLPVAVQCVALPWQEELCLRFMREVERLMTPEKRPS
The test is described as follows: In vitro competitive activity-based protein profiling, mouse FAAH. Type of test: biochemical. To be noted: for inhibition at 1 µM: read-out: FAAH % inh. 1 μM (mouse). Put shortly: (§1)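 Activity measured as fluorescent gel-band intensity of MAGL and FAAH after SDS-PAGE. Before labelling with FP-Rh or HT-01 (30 min, 37 °C), proteomes at 1.0 mg/mL (mouse brain membrane or lysates; human prefrontal cortex or cell membranes) were exposed to varying inhibitor concentrations for 30 min at 37 °C.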

For a further test, the target named is T2, MAGL (Mus musculus, UniProt O35678).
T2 construct: mouse brain membrane fraction or cell lysates for mouse assays; from tissue
T2 sequence (O35678 1-303): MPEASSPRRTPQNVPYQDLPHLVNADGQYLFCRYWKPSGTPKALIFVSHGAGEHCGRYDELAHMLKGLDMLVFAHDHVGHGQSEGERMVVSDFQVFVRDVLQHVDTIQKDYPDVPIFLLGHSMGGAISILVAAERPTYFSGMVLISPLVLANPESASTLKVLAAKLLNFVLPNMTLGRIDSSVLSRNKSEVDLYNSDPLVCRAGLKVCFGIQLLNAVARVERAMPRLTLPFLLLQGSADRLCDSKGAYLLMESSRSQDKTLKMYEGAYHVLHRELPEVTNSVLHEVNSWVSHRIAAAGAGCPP
Description: In vitro competitive activity-based protein profiling, mouse MAGL. Format: biochemical. To be noted: for inhibition at 1 µM: read-out: MAGL % inh. 1 μM (mouse). Put shortly: as §1

As a reminder, the IC50 is the concentration that inhibits the measured activity by half. High values mean lower potency, low ones higher potency.

Structures are written as SMILES. Some results are limits rather than exact numbers.

For the molecule `CN(Cc1ccccc1Cl)[C@@H]1C[C@@H]2CN(C(=O)n3cc(C(=O)N4CCCC4)cn3)C[C@@H]2C1` [Example 57, (trans-5-((2-chlorobenzyl)(methyl)amino)hexahydrocyclopenta[c]pyrrol-2(1H)-yl)(4-(pyrrolidine-1-carbonyl)-1H-pyrazol-1-yl)methanone], on FAAH (1 μM), the “FAAH % inh. 1 μM (mouse)” value is listed as “A (% inhibition greater than or equal to 75%)”. Besides, the “MAGL % inh. 1 μM (mouse)” value at MAGL (1 μM) is “B (% inhibition greater than or equal to 50% and less than 75%)”.
As to `CN(Cc1ccccc1Cl)[C@@H]1C[C@@H]2CN(C(=O)n3cc(Cl)cn3)C[C@@H]2C1` [Example 58, (4-chloro-1H-pyrazol-1-yl)(cis-5-((2-chlorobenzyl)(methyl)amino)hexahydrocyclopenta[c]pyrrol-2(1H)-yl)methanone], the results for the IC50 at FAAH and at MAGL were no more than 100 nM and 100 to 1000 nM, respectively. Also, the inhibition at 1 µM at FAAH (1 μM) and on MAGL (1 μM) was no less than 75% throughout.
Regarding `CC(=O)N(Cc1cccc(Cl)c1)[C@@H]1C[C@@H]2CN(C(=O)n3cc(Cl)cn3)C[C@@H]2C1` [Example 60, N-(cis-2-(4-chloro-1H-pyrazole-1-carbonyl)octahydrocyclopenta[c]pyrrol-5-yl)-N-(3-chlorobenzyl)acetamide], the concentration for half-maximal inhibition (IC50) on FAAH and at MAGL was no more than 100 nM throughout. Further, the inhibition at 1 µM at FAAH (1 μM) and at MAGL (1 μM) was no less than 75% each time.
With `O=C(N1C[C@H]2C[C@@H](NCc3ccccc3Cl)C[C@H]2C1)n1cc(Cl)cn1` [Example 61, (4-chloro-1H-pyrazol-1-yl)(cis-5-((2-chlorobenzyl)amino)hexahydrocyclopenta[c]pyrrol-2(1H)-yl)methanone], the IC50 on FAAH and on MAGL was 100 to 1000 nM in each case. For the same molecule, the inhibition at 1 µM at FAAH (1 μM) and on MAGL (1 μM) was no less than 75% throughout.
For `CC(=O)N(Cc1ccccc1Cl)[C@@H]1C[C@@H]2CN(C(=O)n3cc(Cl)cn3)C[C@@H]2C1` [Example 62, N-(cis-2-(4-chloro-1H-pyrazole-1-carbonyl)octahydrocyclopenta[c]pyrrol-5-yl)-N-(2-chlorobenzyl)acetamide], the half-inhibitory concentration (IC50) at FAAH and on MAGL was 100 to 1000 nM each time. Besides, the inhibition at 1 µM at FAAH (1 μM) and on MAGL (1 μM) was no less than 75% each time.
For `CC(=O)N(Cc1ccccc1Cl)[C@H]1C[C@@H]2CN(C(=O)n3cc(Cl)cn3)C[C@@H]2C1` [Example 63, N-(trans-2-(4-chloro-1H-pyrazole-1-carbonyl)octahydrocyclopenta[c]pyrrol-5-yl)-N-(2-chlorobenzyl)acetamide], the inhibition at 1 µM at FAAH (1 μM) is 25 to 50%; on MAGL (1 μM), no less than 75%.
For `O=C(N1C[C@H]2C[C@H](NCc3ccccc3Cl)C[C@H]2C1)n1cc(Cl)cn1` [Example 64, (4-chloro-1H-pyrazol-1-yl)(trans-5-((2-chlorobenzyl)amino)hexahydrocyclopenta[c]pyrrol-2(1H)-yl)methanone], the half-maximal inhibitory concentration (IC50) at FAAH and on MAGL was no more than 100 nM in each case. In addition, the inhibition at 1 µM at FAAH (1 μM) and at MAGL (1 μM) was no less than 75% each time.
Turning to `CN(Cc1cccc(Cl)c1)[C@@H]1C[C@@H]2CN(C(=O)n3cc(Cl)cn3)C[C@@H]2C1` [Example 65, (4-chloro-1H-pyrazol-1-yl)(cis-5-((3-chlorobenzyl)(methyl)amino)hexahydrocyclopenta[c]pyrrol-2(1H)-yl)methanone], the IC50 on FAAH and on MAGL was no more than 100 nM in each case. Moreover, the inhibition at 1 µM on FAAH (1 μM) and at MAGL (1 μM) was no less than 75% each time.
On to `O=C(N1C[C@H]2C[C@@H](NCc3cccc(Cl)c3)C[C@H]2C1)n1cc(Cl)cn1` [Example 66, (4-chloro-1H-pyrazol-1-yl)(cis-5-((3-chlorobenzyl)amino)hexahydrocyclopenta[c]pyrrol-2(1H)-yl)methanone], for which the results for the IC50 on FAAH and at MAGL were no more than 100 nM and 100 to 1000 nM, respectively. Moreover, the inhibition at 1 µM at FAAH (1 μM) and on MAGL (1 μM) was no less than 75% in each case.
Turning to `CN(Cc1ccc(Cl)cc1)[C@@H]1C[C@@H]2CN(C(=O)n3cc(Cl)cn3)C[C@@H]2C1` [Example 67, (4-chloro-1H-pyrazol-1-yl)(cis-5-((4-chlorobenzyl)(methyl)amino)hexahydrocyclopenta[c]pyrrol-2(1H)-yl)methanone], the IC50 is no more than 100 nM on FAAH and 100 to 1000 nM at MAGL. Further, the inhibition at 1 µM at FAAH (1 μM) and at MAGL (1 μM) was no less than 75% in each case.
As for `CN(Cc1ccc(Cl)cc1)[C@H]1C[C@@H]2CN(C(=O)n3cc(Cl)cn3)C[C@@H]2C1` [Example 68, (4-chloro-1H-pyrazol-1-yl)(trans-5-((4-chlorobenzyl)(methyl)amino)hexahydrocyclopenta[c]pyrrol-2(1H)-yl)methanone], the inhibition at 1 µM on FAAH (1 μM) and at MAGL (1 μM) was no less than 75% in each case.
As to `CC(=O)N(Cc1ccc(Cl)cc1)[C@@H]1C[C@@H]2CN(C(=O)n3cc(Cl)cn3)C[C@@H]2C1` [Example 69, N-(cis-2-(4-chloro-1H-pyrazole-1-carbonyl)octahydrocyclopenta[c]pyrrol-5-yl)-N-(4-chlorobenzyl)acetamide], the IC50 at FAAH and on MAGL was no more than 100 nM in each case. Further, the inhibition at 1 µM at FAAH (1 μM) and at MAGL (1 μM) was no less than 75% each time.
As for `CC(=O)N(Cc1ccc(Cl)cc1)[C@H]1C[C@@H]2CN(C(=O)n3cc(Cl)cn3)C[C@@H]2C1` [Example 70, N-(trans-2-(4-chloro-1H-pyrazole-1-carbonyl)octahydrocyclopenta[c]pyrrol-5-yl)-N-(4-chlorobenzyl)acetamide], the inhibition at 1 µM on FAAH (1 μM) is 50 to 75%; on MAGL (1 μM), no less than 75%.
As to `O=C(N1C[C@H]2C[C@@H](NCc3ccc(Cl)cc3)C[C@H]2C1)n1cc(Cl)cn1` [Example 71, (4-chloro-1H-pyrazol-1-yl)(cis-5-((4-chlorobenzyl)amino)hexahydrocyclopenta[c]pyrrol-2(1H)-yl)methanone], the IC50 at FAAH and at MAGL was 100 to 1000 nM in each case. For the same molecule, the inhibition at 1 µM at FAAH (1 μM) and at MAGL (1 μM) was no less than 75% each time.
Consider `CN(Cc1cccc(Cl)c1)[C@H]1C[C@@H]2CN(C(=O)n3cc(Cl)cn3)C[C@@H]2C1` [Example 72, (4-chloro-1H-pyrazol-1-yl)(trans-5-((3-chlorobenzyl)(methyl)amino)hexahydrocyclopenta[c]pyrrol-2(1H)-yl)methanone], for which the half-inhibitory concentration (IC50) at FAAH and on MAGL was no more than 100 nM in each case. Also, the inhibition at 1 µM on FAAH (1 μM) and at MAGL (1 μM) was no less than 75% throughout.
For the molecule `O=C(N1C[C@H]2C[C@H](NCc3ccc(Cl)cc3)C[C@H]2C1)n1cc(Cl)cn1` [Example 73, (4-chloro-1H-pyrazol-1-yl)(trans-5-((4-chlorobenzyl)amino)hexahydrocyclopenta[c]pyrrol-2(1H)-yl)methanone], the IC50 on FAAH was no more than 100 nM; at MAGL, 100 to 1000 nM. In addition, the inhibition at 1 µM at FAAH (1 μM) and on MAGL (1 μM) was no less than 75% in each case.
As for `CC(=O)N(Cc1cccc(Cl)c1)[C@H]1C[C@@H]2CN(C(=O)n3cc(Cl)cn3)C[C@@H]2C1` [Example 74, N-(trans-2-(4-chloro-1H-pyrazole-1-carbonyl)octahydrocyclopenta[c]pyrrol-5-yl)-N-(3-chlorobenzyl)acetamide], the inhibition at 1 µM at FAAH (1 μM) and at MAGL (1 μM) was no less than 75% throughout.

The record behind these values is patent US10385057B2, “Pyrazole compounds and methods of making and using same” (Lundbeck La Jolla Research Center, Inc., priority 2015, dated 2019).
